Laboratory results taken from patent US8399495B2, “Talarazole metabolites” (Stiefel Laboratories, Inc., priority 2006, dated 2013).

How the values were obtained:
[1] = Excretion of radioactivity (mass balance), mouse; assay type: in vivo; settings: 0-48 h, oral 5 mg/kg; for % in Feces (percent of dose recovered, total radioactivity) / % in Urine (percent of dose recovered, total radioactivity): 5 mg/kg
Source text: (§1) Mouse, rat, dog and human were the species used for the safety evaluations of talarozole. More specifically, the disposition of ^14C-labeled talarozole was examined in mice, rats, dogs and humans after oral administration to provide information regarding the absorption, metabolism and excretion of talarozole.
(§2) Male and female CD-1 mice (19-29 g, n=3/sex/timepoint for blood sampling, n=3/sex for mass balance), Sprague Dawley rats (0.205-0.237 kg, n=3/sex/timepoint for blood sampling, n=3/sex for mass balance) and beagle dogs (7-12 kg, n=3) were given a single oral dose of ^14C-labeled talarozole in 20% hydroxyl propyl B-cyclodextrin at 5 mg/kg. Healthy human male volunteers (76.6-107.9 kg, n=5) were dosed with a single oral dose of 4 mg ^14C-labeled rambazole in ethanol. Blood samples were collected at selected timepoints after dosing and plasma was prepared. Urine and feces were collected for 2, 7 and 8 days. For the human study, up to 288 hours post-dose and semen samples were obtained 2 and 4 hours post-dose. Radioactivity in various matrices were measured by liquid scintillation counting (LSC). Select plasma, urine and fecal samples were subjected to metabolite radioprofiling and characterization, and in the human study, semen samples. Metabolite radioprofiling was accomplished using HPLC with fraction collection followed by solid scintillation counting (Packard TopCount—see representative HPLC run data below). Radioactivity peaks were integrated and the percent distribution of individual metabolites in each sample was determined. Metabolite characterization and identification were accomplished by LC/MS (Finnigan MAT LCQ in positive or negative ESI mode) in conjunction with an appropriate radioactive monitor (RAM). For all species, plasma, urine and fecal samples were pooled across animals and analyzed. Plasma was analyzed at several time-points out to 24 hours. Urine was analyzed over one time-interval (0-24 hours for mouse, 0-48 hours for rat, 0-72 hours for dog, and for in the human study, 0-12, 12-24, 24-48, 0-48 hours. Feces was analyzed over 2-3 time intervals (0-24 and 24-48 hours for mouse and rat; 0-24, 24-48, and 48-72 hours for male dogs; and 24-48, 48-72, and 72-96 hours for female dogs). In the human study, feces were analyzed for 0-48, 48-96, 96-144, 144-192, 192-288, 0-144, 144-288 and 0-288 hours. PK parameters for ^14C-labeled talarozole radioactivity was determined from the mean (mouse and rat) or individual (dog and human) plasma concentration versus time data. PK parameter values were determined by non-compartmental methods using WinNonlin™. • HPLC data for separations described in Example 1: • LC system: Waters 2695 Separations Module • Analytic column: C18 column, 4.6×150 mm, 3 μm • Flow rate: 1.0 mL/min • Mobile phase A: 2% HCOOH in H2O (pH 3.2) • Mobile phase B: CH3CN • Gradient: […]

[2] = Excretion of radioactivity (mass balance), dog; assay type: in vivo; settings: 0-192 h, oral 5 mg/kg; for % in Urine (percent of dose recovered, total radioactivity) / % in Feces (percent of dose recovered, total radioactivity): 5 mg/kg
Source text: as §1, §2

[3] = female, listed as 14C-Talarozole
[4] = female, listed as 14C-labeled talarozole
[5] = male, listed as 14C-labeled talarozole

% in Cage Rinse (percent of dose recovered) ([1]; female): 0.8%
Total % Recovered ([1]; female): 95.4%
% in Feces (percent of dose recovered, total radioactivity) [1, 3]: 91.59 F %
% in Urine (percent of dose recovered, total radioactivity) [1, 3]: 2.96 F %
% in Feces (percent of dose recovered, total radioactivity) [1, 4]: 91.6%
% in Cage Rinse (percent of dose recovered) ([1]; male): 4.4%
Total % Recovered ([1]; male): 91.4%
% in Feces (percent of dose recovered, total radioactivity) ([1]; male, listed as 14C-Talarozole): 82.70 M %
% in Urine (percent of dose recovered, total radioactivity) ([1]; male, listed as 14C-Talarozole): 4.27 M %
% in Feces (percent of dose recovered, total radioactivity) [1, 5]: 82.7%
% in Urine (percent of dose recovered, total radioactivity) ([2]; listed as 14C-Talarozole): 4.13 M %
% in Urine (percent of dose recovered, total radioactivity) ([2]; listed as 14C-labeled talarozole): 4.1%
% in Cage Rinse (percent of dose recovered) ([2]; female): 0.5%
Total % Recovered ([2]; female): 92.4%
% in Feces (percent of dose recovered, total radioactivity) [2, 3]: 89.00 F %
% in Urine (percent of dose recovered, total radioactivity) [2, 3]: 2.89 F %
% in Feces (percent of dose recovered, total radioactivity) [2, 4]: 89.0%
% in Urine (percent of dose recovered, total radioactivity) [2, 4]: 2.9%
% in Cage Rinse (percent of dose recovered) ([2]; male): 0.8%
Total % Recovered ([2]; male): 93.6%
% in Feces (percent of dose recovered, total radioactivity) ([2]; male, listed as 14C-Talarozole): 88.66 M %
% in Feces (percent of dose recovered, total radioactivity) [2, 5]: 88.7%
SMILES: CCC(CC)[C@H](c1ccc(Nc2nc3ccccc3s2)cc1)n1cncn1 [Talarozole, (R)—N-[4-[2-ethyl-1-(1H-1,2,4-triazole-1-yl)butyl]phenyl]-2-benzothiazolamine]
